Source: PMC6420026, “TLR9-mediated dendritic cell activation uncovers mammalian ganglioside species with specific ceramide backbones that activate invariant natural killer T cells” (PLoS Biology, 2019)
Read-outs that look alike come from different tables or passages of the source.

Molecular target: T1, mouse CD1d (mCD1d) (Mus musculus, UniProt P11609)
T1 construct: gene Cd1d1
T1 sequence (P11609 22-305 limits assumed): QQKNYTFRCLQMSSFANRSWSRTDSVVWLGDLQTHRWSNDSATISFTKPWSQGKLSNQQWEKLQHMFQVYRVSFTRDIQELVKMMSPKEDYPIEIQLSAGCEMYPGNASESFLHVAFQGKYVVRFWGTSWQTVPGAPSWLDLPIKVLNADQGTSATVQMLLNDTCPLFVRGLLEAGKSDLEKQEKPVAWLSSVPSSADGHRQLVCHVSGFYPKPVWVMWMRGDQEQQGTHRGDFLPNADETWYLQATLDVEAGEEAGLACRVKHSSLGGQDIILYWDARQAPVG
T1 sequence (P01887 21-119 partner): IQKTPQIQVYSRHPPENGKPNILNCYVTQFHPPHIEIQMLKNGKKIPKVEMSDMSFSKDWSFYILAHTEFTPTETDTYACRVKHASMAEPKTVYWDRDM
Assay: microscale thermophoresis
Type: binding

| Kd (NT-647-labelled mCD1d 125 nM, PBS 25 mM, 0.05% Tyloxapol, up to 5% DMSO, 1:1 fit, labelled protein) | Kd | SMILES |
| --- | --- | --- |
| 69.1 ± 1.5 µM | – | CCCCCCCC/C=C\CCCCCCCCCCCCCC(=O)N[C@@H](CO[C@@H]1O[C@H](CO)[C@@H](O[C@@H]2O[C@H](CO)[C@H](O)[C@H](O[C@]3(C(=O)O)C[C@H](O)[C@@H](NC(C)=O)[C@H]([C@H](O)[C@@H](CO)O[C@]4(C(=O)O)C[C@H](O)[C@@H](NC(C)=O)[C@H]([C@H](O)[C@H](O)CO)O4)O3)[C@H]2O)[C@H](O)[C@H]1O)[C@H](O)/C=C/CCCCCCCCCCCCC [C24:1 GD3] |
| – | 102 ± 2.3 µM | CCCCCCCC/C=C\CCCCCCCCCCCCCC(=O)N[C@@H](CO[C@@H]1O[C@H](CO)[C@@H](O[C@@H]2O[C@H](CO)[C@H](O)[C@H](O[C@]3(C(=O)O)C[C@H](O)[C@@H](NC(C)=O)[C@H]([C@H](O)[C@H](O)CO)O3)[C@H]2O)[C@H](O)[C@H]1O)[C@H](O)/C=C/CCCCCCCCCCCCC [C24:1 GM3] |
| – | 2540 µM | CCCCCCCC/C=C\CCCCCCCCCCCCCC(=O)N[C@@H](CO[C@@H]1O[C@H](CO)[C@@H](O)[C@H](O)[C@H]1O)[C@H](O)/C=C/CCCCCCCCCCCCC [C24:1 β-GlcCer] |
